For the assay, the target named is T1, recombinant human Estrogen Receptor alpha ligand binding domain, residues 307-554 (ER alpha-LBD (GST)) (Homo sapiens, UniProt P03372).
T1 construct: made in house
T1 sequence (P03372 307-554): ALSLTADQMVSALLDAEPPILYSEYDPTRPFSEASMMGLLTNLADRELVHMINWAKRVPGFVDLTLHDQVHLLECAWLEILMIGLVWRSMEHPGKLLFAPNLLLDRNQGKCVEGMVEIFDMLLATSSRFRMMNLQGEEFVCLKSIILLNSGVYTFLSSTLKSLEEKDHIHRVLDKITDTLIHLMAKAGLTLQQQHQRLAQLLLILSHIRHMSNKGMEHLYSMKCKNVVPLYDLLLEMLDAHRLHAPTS
Kind of assay: ERα binding assay (LanthaScreen TR-FRET competition). Conditions: TR-FRET competition with Fluormone ES2 tracer, 4 hours at room temperature; single experiment or average of two or more. Background: Time-resolved FRET reads energy transfer from a long-lived donor to a nearby acceptor.

Consider `Cc1ncsc1-c1ccc(CNC(=O)[C@@H]2C[C@@H](O)CN2C(=O)[C@@H](NC(=O)COCCOCCCCCOc2cnc([C@@H]3c4[nH]c5ccccc5c4C[C@@H](C)N3CC(C)(F)F)c(F)c2)C(C)(C)C)cc1` [Example 164, (2S,4R)-1-((S)-2-(2-(2-((5-((6-((1S,3R)-2-(2,2-Difluoropropyl)-3-methyl-2,3,4,9-tetrahydro-1H-pyrido[3,4-b]indol-1-yl)-5-fluoropyridin-3-yl)oxy)pentyl)oxy)ethoxy)acetamido)-3,3-dimethylbutanoyl)-4-hydroxy-N-(4-(4-methylthiazol-5-yl)benzyl)pyrrolidine-2-carboxamide], for which the IC50 (commonly the point on the concentration scale where inhibition reaches its midpoint) came to 6.6 nM.
On to `COC(=O)[C@@H](C)CN1[C@H](c2c(F)cc(OCCOCCOCCOCC(=O)N[C@H](C(=O)N3C[C@H](O)C[C@H]3C(=O)NCc3ccc(-c4scnc4C)cc3)C(C)(C)C)cc2F)c2[nH]c3ccccc3c2C[C@H]1C` [Example 29], for which the IC50 came out at 5.9 nM.
In the case of `Cc1ncsc1-c1ccc(CNC(=O)[C@@H]2C[C@@H](O)CN2C(=O)[C@@H](NC(=O)COCCCCCOc2ccc([C@@H]3c4[nH]c5ccccc5c4C[C@@H](C)N3CC(F)F)nc2)C(C)(C)C)cc1` [Example 17, (2S,4R)-1-((S)-2-(2-((5-((6-((1S,3R)-2-(2,2-Difluoroethyl)-3-methyl-2,3,4,9-tetrahydro-1H-pyrido[3,4-b]indol-1-yl)pyridin-3-yl)oxy)pentyl)oxy)acetamido)-3,3-dimethylbutanoyl)-4-hydroxy-N-(4-(4-methylthiazol-5-yl)benzyl)pyrrolidine-2-carboxamide], the IC50 stood at 5.5 nM.
For `Cc1ncsc1-c1ccc(CNC(=O)[C@@H]2C[C@@H](O)CN2C(=O)[C@@H](NC(=O)CCCOCCCCCCOc2cc(F)c([C@@H]3c4[nH]c5ccccc5c4C[C@@H](C)N3CC(C)(C)F)c(F)c2)C(C)(C)C)cc1` [Example 112, (2S,4R)-1-((S)-2-(4-((6-(3,5-difluoro-4-((1R,3R)-2-(2-fluoro-2-methylpropyl)-3-methyl-2,3,4,9-tetrahydro-1H-pyrido[3,4-b]indol-1-yl)phenoxy)hexyl)oxy)butanamido)-3,3-dimethylbutanoyl)-4-hydroxy-N-(4-(4-methylthiazol-5-yl)benzyl)pyrrolidine-2-carboxamide] the value was 0.5 nM; for `Cc1ncsc1-c1ccc(CNC(=O)[C@@H]2C[C@@H](O)CN2C(=O)[C@@H](NC(=O)COCCOc2ccc(COc3cc(F)c([C@@H]4c5[nH]c6ccccc6c5C[C@@H](C)N4CC(C)(C)F)c(F)c3)cc2)C(C)(C)C)cc1` [Example 5, (2S,4R)-1-((S)-2-(2-(2-(4-((3,5-Difluoro-4-((1R,3R)-2-(2-fluoro-2-methylpropyl)-3-methyl-2,3,4,9-tetrahydro-1H-pyrido[3,4-b]indol-1-yl)phenoxy)methyl)phenoxy)ethoxy)acetamido)-3,3-dimethylbutanoyl)-4-hydroxy-N-(4-(4-methylthiazol-5-yl)benzyl)pyrrolidine-2-carboxamide], 0.8 nM.
For `Cc1ncsc1-c1ccc(CNC(=O)[C@@H]2C[C@@H](O)CN2C(=O)[C@@H](NC(=O)COCc2ccc(C(=O)Nc3cc(F)c([C@@H]4c5[nH]c6ccccc6c5C[C@@H](C)N4CC(C)(C)F)c(F)c3)nc2)C(C)(C)C)cc1` [Example 144, N-(3,5-Difluoro-4-((1R,3R)-2-(2-fluoro-2-methylpropyl)-3-methyl-2,3,4,9-tetrahydro-1H-pyrido[3,4-b]indol-1-yl)phenyl)-5-((2-(((S)-1-((2S,4R)-4-hydroxy-2-((4-(4-methylthiazol-5-yl)benzyl)carbamoyl)pyrrolidin-1-yl)-3,3-dimethyl-1-oxobutan-2-yl)amino)-2-oxoethoxy)methyl)picolinamide] the value was 1.3 nM; for `Cc1ncsc1-c1ccc(CNC(=O)[C@@H]2C[C@@H](O)CN2C(=O)[C@@H](NC(=O)COCCCC2CN(CCOc3cc(F)c([C@@H]4c5[nH]c6ccccc6c5C[C@@H](C)N4CC(C)(C)F)c(F)c3)C2)C(C)(C)C)cc1` [Example 47, (2S,4R)-1-((S)-2-(2-(3-(1-(2-(3,5-difluoro-4-((1R,3R)-2-(2-fluoro-2-methylpropyl)-3-methyl-2,3,4,9-tetrahydro-1H-pyrido[3,4-b]indol-1-yl)phenoxy)ethyl)azetidin-3-yl)propoxy)acetamido)-3,3-dimethylbutanoyl)-4-hydroxy-N-(4-(4-methylthiazol-5-yl)benzyl)pyrrolidine-2-carboxamide], 0.7 nM.
For `Cc1ncsc1-c1ccc(CNC(=O)[C@@H]2C[C@@H](O)CN2C(=O)[C@@H](NC(=O)COCCCCCN(C)CCOc2cc(F)c([C@@H]3c4[nH]c5ccccc5c4C[C@@H](C)N3CC(C)(C)F)c(F)c2)C(C)(C)C)cc1` [Example 49, (2S,4R)-1-((S)-2-(2-((5-((2-(3,5-difluoro-4-((1R,3R)-2-(2-fluoro-2-methylpropyl)-3-methyl-2,3,4,9-tetrahydro-1H-pyrido[3,4-b]indol-1-yl)phenoxy)ethyl)(methyl)amino)pentyl)oxy)acetamido)-3,3-dimethylbutanoyl)-4-hydroxy-N-(4-(4-methylthiazol-5-yl)benzyl)pyrrolidine-2-carboxamide], the IC50 was 1 nM.
As for `Cc1ncsc1-c1ccc([C@H](C)NC(=O)[C@@H]2C[C@@H](O)CN2C(=O)[C@@H](NC(=O)COCCc2ccc(COc3cc(F)c([C@@H]4c5[nH]c6ccccc6c5C[C@@H](C)N4CC(C)(C)F)c(F)c3)nc2)C(C)(C)C)cc1` [Example 159, (2S,4R)-1-((S)-2-(2-(2-(6-((3,5-Difluoro-4-((1R,3R)-2-(2-fluoro-2-methylpropyl)-3-methyl-2,3,4,9-tetrahydro-1H-pyrido[3,4-b]indol-1-yl)phenoxy)methyl)pyridin-3-yl)ethoxy)acetamido)-3,3-dimethylbutanoyl)-4-hydroxy-N—((S)-1-(4-(4-methylthiazol-5-yl)phenyl)ethyl)pyrrolidine-2-carboxamide], the IC50 was 0.7 nM.
On to `Cc1ncsc1-c1ccc(CNC(=O)[C@@H]2C[C@@H](O)CN2C(=O)[C@@H](NC(=O)CCCCCCCCCOc2cc(F)c([C@@H]3c4[nH]c5ccccc5c4C[C@@H](C)N3CC(C)(C)F)c(F)c2)C(C)(C)C)cc1` [Example 11, (2S,4R)-1-((S)-2-(10-(3,5-Difluoro-4-((1R,3R)-2-(2-fluoro-2-methylpropyl)-3-methyl-2,3,4,9-tetrahydro-1H-pyrido[3,4-b]indol-1-yl)phenoxy)decanamido)-3,3-dimethylbutanoyl)-4-hydroxy-N-(4-(4-methylthiazol-5-yl)benzyl)pyrrolidine-2-carboxamide], for which the IC50 was 1.5 nM.
Regarding `Cc1ncsc1-c1ccc(CNC(=O)[C@@H]2C[C@@H](O)CN2C(=O)[C@@H](NC(=O)CCCCCCCCCCOc2cc(F)c([C@@H]3c4[nH]c5ccccc5c4C[C@@H](C)N3CC(C)(C)F)c(F)c2)C(C)(C)C)cc1` [Example 32, (2S,4R)-1-((S)-2-(11-(3,5-Difluoro-4-((1R,3R)-2-(2-fluoro-2-methylpropyl)-3-methyl-2,3,4,9-tetrahydro-1H-pyrido[3,4-b]indol-1-yl)phenoxy)undecanamido)-3,3-dimethylbutanoyl)-4-hydroxy-N-(4-(4-methylthiazol-5-yl)benzyl)pyrrolidine-2-carboxamide], the IC50 is 2.3 nM.
Consider `Cc1ncsc1-c1ccc(CNC(=O)[C@@H]2C[C@@H](O)CN2C(=O)[C@@H](NC(=O)CNCc2ccc(COc3cc(F)c([C@@H]4c5[nH]c6ccccc6c5C[C@@H](C)N4CC(C)(C)F)c(F)c3)nc2)C(C)(C)C)cc1` [Example 146], for which the IC50 was 0.8 nM.
In the case of `Cc1ncsc1-c1ccc(CNC(=O)[C@@H]2C[C@@H](O)CN2C(=O)[C@@H](NC(=O)CCCCOCCCCCOc2cc(F)c([C@@H]3c4[nH]c5ccccc5c4C[C@@H](C)N3CC(C)(C)F)c(F)c2)C(C)(C)C)cc1` [Example 113, (2S,4R)-1-((S)-2-(5-((5-(3,5-Difluoro-4-((1R,3R)-2-(2-fluoro-2-methylpropyl)-3-methyl-2,3,4,9-tetrahydro-1H-pyrido[3,4-b]indol-1-yl)phenoxy)pentyl)oxy)pentanamido)-3,3-dimethylbutanoyl)-4-hydroxy-N-(4-(4-methylthiazol-5-yl)benzyl)pyrrolidine-2-carboxamide], the IC50 stood at 0.6 nM.
Under `Cc1ncsc1-c1ccc(CNC(=O)[C@@H]2C[C@@H](O)CN2C(=O)[C@@H](NC(=O)COCCc2ccc(COc3cc(F)c([C@@H]4c5[nH]c6ccccc6c5C[C@@H](C)N4CC(C)(C)F)c(F)c3)cc2)C(C)(C)C)cc1` [Example 53, (2S,4R)-1-((S)-2-(2-(4-((3,5-difluoro-4-((1R,3R)-2-(2-fluoro-2-methylpropyl)-3-methyl-2,3,4,9-tetrahydro-1H-pyrido[3,4-b]indol-1-yl)phenoxy)methyl)phenethoxy)acetamido)-3,3-dimethylbutanoyl)-4-hydroxy-N-(4-(4-methylthiazol-5-yl)benzyl)pyrrolidine-2-carboxamide] stands 1 nM; under `Cc1ncsc1-c1ccc(CNC(=O)[C@@H]2C[C@@H](O)CN2C(=O)[C@@H](NC(=O)CCCCCOCCCCOc2cc(F)c([C@@H]3c4[nH]c5ccccc5c4C[C@@H](C)N3CC(C)(C)F)c(F)c2)C(C)(C)C)cc1` [Example 109, (2S,4R)-1-((S)-2-(6-(4-(3,5-difluoro-4-((1R,3R)-2-(2-fluoro-2-methylpropyl)-3-methyl-2,3,49-tetrahydro-1H-pyrido[3,4-b]indol-1-yl)phenoxy)butoxy)hexanamido)-3,3-dimethylbutanoyl)-4-hydroxy-N-(4-(4-methylthiazol-5-yl)benzyl)pyrrolidine-2-carboxamide], 0.6 nM.

The values are drawn from US10519152B2, “Compounds and their use in treating cancer” (AstraZeneca AB, priority 2017, dated 2019).
